Measured values reported in paper PMC10442743 (Dalton Transactions (Cambridge, England : 2003), 2023).
Where two headings read alike, the source gives them in different places.

Experiments:
[1] = system: ct-DNA; conditions: cited from earlier work
[2] = system: ctDNA; experiment: Circular dichroism / induced circular dichroism with calf thymus DNA; conditions: DNA
Experimental: Calf thymus (ct) DNA (Merck®) was used to perform the circular dichroism assay to detect conformational changes in the ctDNA induced by the compounds. CD spectral data was collected on a Chirascan™ V100 (Applied Photophysics) spectropolarimeter equipped with a large area Avalanche photodiodes detector and computer-controlled thermoelectrical cell holder using a 1 cm path length quartz cuvette. CD spectra of ctDNA in the absence and presence of different concentrations of 11Cl were recorded at wavelengths ranging from 320 to 190 nm under constant nitrogen flush at 25 °C. For each CD spectrum, the number of scans was set to 5, and spectral data were collected at 0.1 ms intervals. Additionally, methyl green (MG) and 4′,6-diamidino-2-phenylindole (DAPI), and propidium iodide (PI) were analyzed as minor and major groove binders and as an intercalator, respectively, to help identify the binding mode of 11Cl to DNA. Samples were prepared in 10 mM Tris-HCl buffer (pH 7.6) with 1 mM EDTA. The concentration of ctDNA was fixed at 100 μM (concerning base pairs) and the ctDNA to 11Cl ratio was varied between 0 and 1. The samples were incubated for 24 h at 37 °C and then analyzed in the CD spectropolarimeter.

[3] = system: MDA-MB-231; conditions: read-out: cytotoxicity (IC50) MDA-MB-231, cited from earlier work
[4] = system: MCF-7; conditions: read-out: cytotoxicity (IC50) MCF-7, cited from earlier work
[5] = system: L929; experiment: MTT cytotoxicity assay, L929 fibroblasts (and selectivity index); format: cell-based, mouse; conditions: for SI (selectivity index): IC50 L929 divided by average IC50 of the breast cancer cell lines; for IC50: MTT
Experimental: (§1) The cytotoxicity of 1–11CA was assessed against human breast cancer MCF-7 and MDA-MB-231 cells, and non-tumorigenic adherent mouse fibroblast connective tissue L929 cells using the MTT assay after 24 and 72 h (Tables S5 ^† and Table 1, respectively).
(§2) Then, necessary dilutions were made using the supplement DMEM, to prepare the range of tested concentrations. Since DMSO was used to solubilize the compounds, a supplemented DMEM + DMSO (at the same percentage as in the sequential dilutions) was considered as a control in the 3-[4,5-dimetylthiazole-2-yl]-2,5-diphenyltetrazolium bromide (MTT) assay.
(§3) L929, MCF-7, and MDA-MB-231 cell lines were cultured in DMEM supplemented with 10% (v/v) FBS and 1% (v/v) of penicillin–streptomycin. The cells were incubated in a humidified chamber at 37 °C under saturated air with a 5% CO2 atmosphere. Cells were passed at 80%–90% of confluency with 0.25% (w/v) trypsin and the cell culture media was changed every 2–3 days.
(§4) The compounds were tested on two breast cancer cell lines (MCF-7 and MDA-MB-231) and L929 fibroblasts, used as a reference for the safety evaluation according to ISO 10993-1:2009 “Biological evaluation of medical devices”. Cells were seeded on sterile 96-well plates at 50 000 cells per well (L929) and 20 000 cells per well (MCF-7 and MDA-MB-231) in supplemented DMEM medium (100 μL) for 24 h. The culture medium was removed and new media containing different concentrations of the compounds (0–1000 μM) was added to the wells (100 μL). Control cells were incubated under the same conditions in the absence of a compound. Cells were incubated for 24 and 72 h under the same conditions described above. Then, the medium was removed, and the cells were incubated with 3-(4,5-dimethylthiazol-2-yl)-2,5-diphenyltetrazolium bromide (MTT; 0.5 mg mL^−1) for 3 h. After this time, the medium was removed, and formazan crystals were solubilized with DMSO (100 μL per well). The absorbance in each well was read on a SynergyTM HT Multimode microplate reader (BioTek Instruments; Winooski, VT, USA) at 570 and 630 nm (for background correction), and the cell viability was calculated according to the following equation (eqn (1)):1 [drawing 3] where OD570(sample) and OD630(sample) are the optical densities of the solutions containing the compounds and OD570(control) and OD630(control) are controls without compound.
(§5) Each apoptosis value determination represents the mean ± standard deviation of 2 independent assays. The IC50 values were obtained using GraphPad Prism software and ANOVA (analysis of variance) was performed to determine the statistical difference between the IC50 values of different cell lines.

[6] = system: MDA-MB-231; experiment: FITC Annexin V / 7-AAD apoptosis assay, MDA-MB-231; format: cell-based, human; conditions: 24 h at 24 h IC50 dose
Experimental: Apoptosis in MCF-7 and MDA-MB-231 cells was determined using FITC Annexin V with a 7-aminoactinomycin D (7-AAD) staining kit (BioLegend®, California, US) according to the manufacturer's instructions. […] Following incubation, the cells were washed with PBS twice and detached using 0.25% trypsin. After obtaining cell pellets by centrifugation (300g for 5 min), the cells were resuspended in 100 μL of PBS, followed by the addition of 10 μL of FITC Annexin V and 7-AAD, and then incubated for 15 min at room temperature while protected from light. After the incubation period, 200 μL of binding buffer was added to the cell suspension and the samples were analyzed immediately using a BD Accuri C6 flow cytometer with a minimum of 10 000 events. The assays were performed in quadruplicate and the results were analyzed with Accuri C6 analysis software.
as §5, with “Each cell viability result represents the mean ± standard deviation (SD) for n = 4 replicates in each of 3 independent assays, resulting in 12 independent values. Each” for “Each”

[7] = system: MDA-MB-231; experiment: MTT cytotoxicity assay, MDA-MB-231 cells; format: cell-based, human; conditions: MTT
Experimental: as §1, §2, §3, §4, §5

[8] = system: MCF-7; experiment: MTT cytotoxicity assay, MCF-7 cells; format: cell-based, human; conditions: MTT
Experimental: as §1, §2, §3, §4, §5

[9] = Solubility in water (ICP-MS); conditions: 25 °C, limit of detection = 5 ppt
Experimental: sonication, the mixtures were stirred at 25 °C for 1 h. The saturated solutions were filtered
to remove any insoluble solids, dissolved in 0.5 mL of MilliQ water, and analyzed using
ICP-MS. Samples were submitted to acidic digestion with 2 mL of concentrated HNO3
min to heat to 100°C and keep at 100°C for 60 min. After the digestion, the sample
volumes were precisely adjusted to 5 mL with MilliQ water. Samples were further diluted
30 times with 2% HNO3 solution and their Ru content was analyzed by ICP-MS using
standard mode on NexIon 350 D ICP-MS instrument (PerkinElmer). Yttrium was added
as an internal standard at a concentration of 2 ppb to all the solution and Ru quantitation
was performed using an external calibration curve with standards in the 0.05-50 ppb

[10] = Molar conductivity in acetonitrile; format: physicochemical; conditions: 1 mM in acetonitrile, 25 °C
Experimental: The molar conductivity (ΛM, reported as S·cm2·mol–1) of solutions of 11CA in acetonitrile (1 mM) were measured in a Radiometer Copenhagen CDM92 equipped with a conductivity cell CDC641T glass platinum electrode at room temperature (25 °C). The conductivity of the pure solvent was used as standard controls.
Table S3. Solubility in water at 25 °C, n-octanol/water partition coefficient and molar conductivity of the 11CA. * below limit of detection = 5 ppt.

[11] = n-octanol/water partition coefficient (shake-flask, ICP-MS)
Experimental: The saturated solutions were filtered
(DigiPREP Jr. 15ml, 40 Pos, SCP Science). The digestion program was the following: 15
After the digestion, the sample
Samples were further diluted
range. All measurements were performed in triplicates.
lipophilicity of a compound. This assay was performed following the Shake-flask method
organic and aqueous phase. Aliquots of each phase were taken and analyzed separately
range. The partition coefficient was calculated as P!"=
respectively. All measurements were performed in triplicates.

[12] = Stability in solution (ESI-MS, NMR); conditions: 100% d6-DMSO, 1 mM, 72 h
Experimental: The stability of 11CA under pseudo-physiological conditions was assessed using ESI-MS and ^1H and ^31P NMR spectroscopy.
Stability studies were performed on 11CA over 72 h at 37 °C.
The stability of 11Cl was also monitored over
72 h via 1H and 31P NMR spectroscopy. The complex was fully dissolved in d6-DMSO,
diluted with D2O to reach 10% d6-DMSO in D2O (1 mM final concentration) and, finally,
the pD was adjusted to 7.2 ± 0.1 (neutral conditions). Furthermore, the stability of 11Cl
and 11BPh4 was also assessed in 100% d6-DMSO (1 mM final concentration) as a highly

[13] = n-octanol/water; ESI ref 13; cited from earlier work
[14] = system: 6-mer dsDNA (DNA, duplex) AGGCAG/CTGCCT; experiment: ESI tandem mass spectrometry; conditions: MilliQ water pH 7, 37 °C, 3:1 mixed; 24 h or 72 h (ESI); non-covalent
[15] = system: 14-mer ssDNA (DNA, single strand) ATACATGGTACATA; experiment: ESI tandem mass spectrometry; conditions: MilliQ water pH 7, 37 °C, 24 h; compound:DNA 3:1 mixed; adduct seen as [Ru(toluene)(PPh3)]2+; non-covalent
[16] = 24 h exposure, read-out: IC50 (µM) (average ± standard deviation) 24 h L929
[17] = 72 h exposure, read-out: IC50 (μM) (average ± standard deviation) 72 h L929
[18] = 24 h exposure, read-out: IC50 (µM) (average ± standard deviation) 24 h MDA-MB-231
[19] = 72 h exposure, read-out: IC50 (μM) (average ± standard deviation) 72 h MDA-MB-231
[20] = 24 h exposure, read-out: IC50 (µM) (average ± standard deviation) 24 h MCF-7
[21] = 72 h exposure, read-out: IC50 (μM) (average ± standard deviation) 72 h MCF-7

Row | Structure (SMILES) | SI (selectivity index) ([5]; 24 h) | IC50 [5, 16] [µM] | SI (selectivity index) ([5]; 72 h) | IC50 [5, 17] [µM] | average apoptosis percentage, MDA-MB-231 cells [6] [%] | IC50 [7, 18] [µM] | IC50 [7, 19] [µM] | IC50 [8, 20] [µM] | IC50 [8, 21] [µM] | Solubility (μM) [9] | Solubility (μg/mL) [9] | further results
1 | CN(C)c1ccc(C(=C2C=CC(=[N+](C)C)C=C2)c2ccc([N+](C)(C)C)cc2)cc1.[Cl-].[Cl-] [MG, methyl green] | – | – | – | – | – | – | – | – | – | – | – | Kprobe, binding constant of the probe to DNA ([1]; used in eqn (4) ref 91): 900000 M⁻¹; CD band 210 nm, intensity change ([2]; 24 h, 37 °C): Hypochromic; CD band 210 nm, wavelength shift ([2]; 24 h, 37 °C): Blue; CD band 220 nm (hydrogen bonding), intensity change ([2]; 24 h, 37 °C): Hyperchromic; CD band 220 nm (hydrogen bonding), wavelength shift ([2]; 24 h, 37 °C): Blue shift; CD band 246 nm (helicity), intensity change ([2]; 24 h, 37 °C): Hypochromic; CD band 246 nm (helicity), wavelength shift ([2]; 24 h, 37 °C): Unchanged; CD band 268−280 nm (base-pair stacking interactions), intensity change ([2]; 24 h, 37 °C): Unchanged; CD band 268−280 nm (base-pair stacking interactions), wavelength shift ([2]; 24 h, 37 °C): Unchanged
2 | N.N.O=C([O-])C1(C(=O)[O-])CCC1.[Pt+2] [carboplatin] | – | – | – | – | – | – | – | – | – | – | – | IC50 ([3]; literature value ref 44): 15.4 ± 3.3 µM; IC50 ([4]; literature value ref 43): 27.3 µM
3 | Cc1cccc[c]1[Ru+]([Cl])([PH]12CN3CN(CN(C3)C1)C2)[PH](c1ccccc1)(c1ccccc1)c1ccccc1.F[P-](F)(F)(F)(F)F (stereo not shown) [Compound 10] | 0.6 | 74 ± 5 | 10.5 | 31 ± 3 | 41 | 113 ± 14 | 2.8 ± 0.2 | 128 ± 30 | 3.1 ± 0.2 | 547 ± 117 µM | 475 ± 102 µg/mL | –
4 | N=C(N)c1ccc(-c2cc3ccc(C(=N)N)cc3[nH]2)cc1 [DAPI] | – | – | – | – | – | – | – | – | – | – | – | Kprobe, binding constant of the probe to DNA ([1]; used in eqn (4) ref 92): 5e+06 M⁻¹; CD band 268 nm, intensity change ([2]; 268 nm part of the 268−280 nm band): Hyperchromic; CD band 280 nm, intensity change ([2]; 280 nm part of the 268−280 nm band): Hypochromic; CD band 210 nm, intensity change ([2]; 24 h, 37 °C): Hypochromic; CD band 210 nm, wavelength shift ([2]; 24 h, 37 °C): Red; CD band 220 nm (hydrogen bonding), intensity change ([2]; 24 h, 37 °C): Hyperchromic; CD band 220 nm (hydrogen bonding), wavelength shift ([2]; 24 h, 37 °C): Blue shift; CD band 246 nm (helicity), intensity change ([2]; 24 h, 37 °C): Unchanged; CD band 246 nm (helicity), wavelength shift ([2]; 24 h, 37 °C): Unchanged; CD band 268−280 nm (base-pair stacking interactions), wavelength shift ([2]; 24 h, 37 °C): Unchanged
5 | Cc1cccc[c]1[Ru+]([Cl])([PH](c1ccccc1)(c1ccccc1)c1ccccc1)[PH](c1ccccc1)(c1ccccc1)c1ccccc1.O=S(=O)([O-])C(F)(F)F [Compound 11OTf] | 1.5 | 5.8 ± 0.7 | 1.8 | 1.8 ± 0.2 | 40 | 4 ± 2 | 1.4 ± 0.1 | 4 ± 1 | 0.6 ± 0.07 | 1.1 ± 0.1 µM | 1.0 ± 0.1 µg/mL | Conductivity (molar conductivity) [10]: 173 S·cm2/mol; LogPow [11]: 1.75 ± 0.18
6 | Cc1cccc[c]1[Ru+]([Cl])([PH](c1ccccc1)(c1ccccc1)c1ccccc1)[PH](c1ccccc1)(c1ccccc1)c1ccccc1.c1ccc([B-](c2ccccc2)(c2ccccc2)c2ccccc2)cc1 [Compound 11BPh4] | 0.8 | 59 ± 5 | 3.5 | 3.9 ± 0.3 | 33 | 100 ± 8 | 1.7 ± 0.3 | 51 ± 5 | 0.52 ± 0.06 | below LOD | below LOD | Conductivity (molar conductivity) [10]: 71 S·cm2/mol; LogPow [11]: > 3.5; stability in DMSO (NMR) [12]: No changes were observed
7 | Cc1ccccc1.[Cl][Ru]([Cl])[PH]12CN3CN(CN(C3)C1)C2 [Compound 4] | 1.7 | 723 ± 29 | 1.0 | 79 ± 4 | – | 384 ± 16 | 83 ± 4 | 474 ± 19 | 68 ± 7 | – | – | LogPow [13]: −1.5
8 | Cc1ccccc1.[Cl-].[Ru+2].c1ccc(P(c2ccccc2)c2ccccc2)cc1.c1ccc(P(c2ccccc2)c2ccccc2)cc1 | – | – | – | – | – | – | – | – | – | – | – | binding [14]: yes; binding [15]: yes
9 | N.N.[Cl][Pt][Cl] [cisplatin] | – | – | – | – | – | – | – | – | – | – | – | IC50 ([3]; literature value ref 42): 38.7 ± 0.03 µM; IC50 ([4]; literature value ref 41): 28 ± 6 µM
10 | Cc1ccc(C(C)C)cc1.[Cl][Ru]([Cl])[PH]12CN3CN(CN(C3)C1)C2 [Compound 5] | 1.2 | 612 ± 30 | 1.3 | 84 ± 4 | – | 497 ± 12 | 71 ± 4 | 526 ± 19 | 57 ± 5 | – | – | LogPow [13]: > −1.8
11 | Cc1cccc[c]1[Ru+]([Cl])([PH](c1ccccc1)(c1ccccc1)c1ccccc1)[PH](c1ccccc1)(c1ccccc1)c1ccccc1.[F][Sb-]([F])([F])([F])([F])[F] [Compound 11SbF6] | 0.4 | 7 ± 0.4 | 12.8 | 1.35 ± 0.09 | 95 | 21 ± 2 | 0.131 ± 0.009 | 11 ± 2 | 0.08 ± 0.01 | below LOD | below LOD | Conductivity (molar conductivity) [10]: 186 S·cm2/mol; LogPow [11]: 2.01 ± 0.07
